Reference: patent US20250289827A1, “MORPHIC FORMS OF A MUTANT BRAF DEGRADER AND METHODS OF MANUFACTURE THEREOF” (C4 THERAPEUTICS, INC., priority 2022, published 2025)
Converted amounts (≈) assume the structure as drawn.

Columns and labels:
[1] = Solubility data for Compound 1 drug substance; format: physicochemical
[2] = tested on: patient-derived xenograft (PDX) of non-small cell lung carcinoma (NSCLC) with BRAF V600E mutation; assay: Efficacy in BRAF V600E NSCLC PDX model; settings: for Tumor response: day 28
[3] = tested on: BRAF V600E mutant A375-luciferase intracranial model; assay: Efficacy in A375-luciferase intracranial model; settings: for Survival rate: as of day 75
Description: For the efficacy study, agents were tested in A375 human melanoma cancer cell derived xenografts (CDX). […] The A375 tumor cells were maintained in vitro in DMEM medium supplemented with 10% fetal bovine serum and 1% Penicillin-Streptomycin at 37° C. in an atmosphere of 5% CO2 in air. The tumor cells were routinely subcultured twice weekly. The cells growing in an exponential growth phase were harvested and counted for tumor inoculation.
For this CNS study, A375 cells with a luciferase tag for tracking tumor cell signal, were injected intracranially into 6-8 week old female BALB/c nude mice. […] The mice were anaesthetized, restrained, and sterilized prior to surgery. […] A 2 mm hole was created to the right of the anterior fontanel and 0.5 mm above the coronal on the skull with a cranial drill. Cell suspensions in 20% Matrigel were mixed and aspirated into the injector carefully to avoid bubbles and wiped to avoid extracranial tumorigenesis. The needle was inserted vertically into the cranial hole and the cell mixture was slowly injected for two minutes and held for another minute to decrease the drainage of the cell suspension. The wound was closed, and a subcutaneous injection of 5 mg/kg Meloxicam was given to relieve the pain and continued for three days. The mice were monitored closely until they woke up after the surgery. After inoculation, the animals were checked daily for morbidity and mortality.
The administration of the test agents began three days after inoculation. […] Measurements for the presence of the A375 luciferase signal within the CNS were done with IVIS Lumina III machine. Images were collected twice weekly to follow the growth of the models. The tumor-bearing mice were weighed and intraperitoneally administered luciferin (Perkin Elmer Inc-122799) at a dosage of 150 mg/kg. After ten minutes, mice were pre-anesthetized with the mixture gas of oxygen and isoflurane. The bioluminescence value at fifteen minutes post luciferin injection was recorded as the final value and plotted. The endpoint for individual mice was reached when the mouse body weight decreased by 20% when compared to their starting weight.
The luciferase signal for the mice removed from study were not carried forward, so a sudden drop in luciferase signal over time is due to mice with a heavy tumor burden being terminated and their high luciferase signal not being carried forward.

[4] = Stability study for Compound 1 Form A (storage conditions); format: physicochemical
[5] = Approximate solubility at 25° C. and 50° C. (visual); format: physicochemical
Description: About 5 mg of Compound 1 Form A was weighed to a 2 mL glass vial. 20 μL aliquots of each solvent were added to dissolve the drug substance at 25° C. About 10 mg of Compound 1 Form A was weighed to a 2 mL glass vial. 20 μL aliquots of each solvent were added to dissolve the drug substance at 50° C. Vortex and sonication were applied to assist dissolution. Maximum volume of each solvent added was 1 mL. Approximate solubility was determined by visual observation.
About 5 mg of Compound 1 Form B was weighed to a 2 mL glass vial. 20 μL aliquots of each solvent were added to dissolve the drug substance at 25° C. About 10 mg of Compound 1 Form B was weighed to a 2 mL glass vial. […] aliquots of each solvent were added to dissolve the drug substance at 50° C. Vortex and sonication were applied to assist dissolution. Maximum volume of each solvent added is 1 mL. Approximate solubility was determined by visual observation.

[6] = 25° C. ± 2° C./60% RH ± 5% RH, 3 M
[7] = 25° C. ± 2° C./60% RH ± 5% RH, 6 M
[8] = 40° C. ± 2° C./75% RH ± 5% RH, 3 M
[9] = 40° C. ± 2° C./75% RH ± 5% RH, 6 M

## CCN(C)S(=O)(=O)Nc1ccc(F)c(Oc2ccc3ncn([C@H]4COC5(CCN(C(=O)CC6(O)CCN(c7cc8c(cc7F)c(N7CCC(=O)NC7=O)nn8C)CC6)CC5)C4)c(=O)c3c2)c1C#N [Compound 1, (3R)-3-[6-[2-cyano-3-[[ethyl(methyl)sulfamoyl]amino]-6-fluorophenoxy]-4-oxoquinazolin-3-yl]-8-[2-[1-[3-(2,4-dioxo-1,3-diazinan-1-yl)-5-fluoro-1-methylindazol-6-yl]-4-hydroxypiperidin-4-yl]acetyl]-1-oxa-8-azaspiro[4.5]decane]
[1]; FaSSIF, pH 6.48, fassif
  solubility: 5840 µg/mL (≈ 6.1 mM)
[1]; FeSSIF, pH 4.86, fessif
  solubility: 1350 µg/mL (≈ 1.41 mM)
[1]; SGF, pH 1.74, simulated gastric fluid
  solubility: 6580 µg/mL (≈ 6.87 mM)
[1]; aqueous buffer, 50 mM pH 6.8 phosphate buffer solution, pH 6.76
  solubility: 1530 µg/mL (≈ 1.6 mM)
[1]; aqueous buffer, 50 mM pH 7.4 phosphate buffer solution, pH 7.40
  solubility: 8790 µg/mL (≈ 9.18 mM)
[1]; aqueous buffer, 100 mM pH 3.0 citrate buffer solution, pH 3.02
  solubility: 2090 µg/mL (≈ 2.18 mM)
[1]; aqueous buffer, 100 mM pH 4.5 citrate buffer solution, pH 4.53
  solubility: 3160 µg/mL (≈ 3.3 mM)
[1]; aqueous buffer, pH 9.0 NaOH solution, pH 8.55
  solubility: 21600 µg/mL (≈ 22.5 mM)
[1]; pH 8.9, Purified water, pH 8.90
  solubility: 42400 µg/mL (≈ 44.3 mM)
[1]; simulated gastric fluid, pH 1.2 HCl/KCl solution, pH 1.17
  solubility: 23000 µg/mL (≈ 24 mM)
[1]; simulated gastric fluid, pH 2.0 HCl/KCl solution, pH 1.95
  solubility: 4350 µg/mL (≈ 4.54 mM)
[2]; 10 mg/kg PO BID plus trametinib 0.1 mg/kg PO QD
  Tumor response: tumor regression
[2]; 10 mg/kg PO BID, without trametinib
  Tumor response: tumor regression
[3]; 10 mg/kg PO BID
  Survival rate: 50%
[3]; 30 mg/kg PO BID
  Survival rate: 87.5%
[3]; intracranial melanoma tumors
  Survival time compared to encorafenib: significant increase in survival time
[3]; relative to vehicle control or encorafenib treated mice
  Bioluminescence signal (tumor burden): dramatically reduced the bioluminescence signal

## COC(=O)N[C@@H](C)CNc1nccc(-c2cn(C(C)C)nc2-c2cc(Cl)cc(NS(C)(=O)=O)c2F)n1 [encorafenib]
[3]; 35 mg/kg PO QD, vehicle median survival 18 days
  Survival (average): 46 days

## CCN(C)S(=O)(=O)Nc1ccc(F)c(Oc2ccc3ncn([C@H]4COC5(CCN(C(=O)CC6(O)CCN(c7cc8c(cc7F)c(N7CCC(=O)NC7=O)nn8C)CC6)CC5)C4)c(=O)c3c2)c1C#N [Compound 1 Form A]
[4]; 5 ± 3° C., 6 M
  Appearance: white solid
  Assay by UPLC (% w/w): 92.0% w/w
  Chiral purity by HPLC (% area): 99.2% area
  Related Substances by UPLC (% area), Total Impurities: 2.8% area
  Water Content by KF (% w/w): 4.7% w/w
  XRPD: Form A
[4]; 5 ± 3° C., 25° C./60% RH, 30° C./65% RH, 40° C./75% RH
  Stability study outcome (appearance, water content, chiral purity, assay, related substance): meet the acceptance criteria
[4]; [6]
  Assay by UPLC (% w/w): 93.3% w/w
  Chiral purity by HPLC (% area): 99.2% area
  Related Substances, UPLC (% area), Total Impurities: 2.6% area
  Water Content by KF (% w/w): 3.6% w/w
  XRPD: Form A
[4]; [7]
  Assay by UPLC (% w/w): 92.9% w/w
  Chiral purity by HPLC (% area): 99.2% area
  Related Substances, UPLC (% area), Total Impurities: 2.9% area
  Water Content by KF (% w/w): 4.2% w/w
  XRPD: Form A
[4]; 30 ± 2° C./65 ± 5% RH, 6 M
  Appearance: white solid
  Assay by UPLC (% w/w): 92.4% w/w
  Chiral purity by HPLC (% area): 99.2% area
  Related Substances, UPLC (% area), Total Impurities: 3.0% area
  Water Content by KF (% w/w): 3.8% w/w
  XRPD: Form A
[4]; [8]
  Assay by UPLC (% w/w): 92.2% w/w
  Chiral purity by HPLC (% area): 99.2% area
  Related Substances, UPLC (% area), Total Impurities: 2.7% area
  Water Content by KF (% w/w): 3.9% w/w
  XRPD: Form A
[4]; [9]
  Assay by UPLC (% w/w): 92.5% w/w
  Chiral purity by HPLC (% area): 99.2% area
  Related Substances, UPLC (% area), Total Impurities: 3.3% area
  Water Content by KF (% w/w): 4.5% w/w
  XRPD: Form A
[4]; Initial
  Appearance: white solid
  Assay by UPLC (% w/w): 97.3% w/w
  Chiral purity by HPLC (% area): 99.2% area
  Related Substances by UPLC (% area), Total Impurities: 2.6% area
  Water Content by KF (% w/w): 0.59% w/w
  XRPD: Form A
[4]; each stability condition
  Water content trend: increased overtime
[5]; 1,4-Dioxane, 25° C., listed as Form A
  solubility: >250000 µg/mL
[5]; 1,4-Dioxane, 50° C., listed as Form A
  solubility: >500000 µg/mL
[5]; 2-MeTHF, 25 °C, organic solvent or mixture, thermodynamic from solid, 2-MeTHF, 25° C., read-out: Solubility
  solubility: 5000 to 7000 µg/mL (≈ 5.22 to 7.31 mM)
[5]; 2-MeTHF, 50 °C, organic solvent or mixture, thermodynamic from solid, 2-MeTHF, 50° C., read-out: Solubility
  solubility: < 10000 µg/mL
[5]; Acetone, 25° C., listed as Form A
  solubility: 13000 to 17000 µg/mL
[5]; Acetone, 50° C., listed as Form A
  solubility: 25000 to 29000 µg/mL
[5]; Acetonitrile, 25° C., listed as Form A
  solubility: 13000 to 17000 µg/mL
[5]; Acetonitrile, 50° C., listed as Form A
  solubility: 25000 to 33000 µg/mL
[5]; DCM, 25° C., listed as Form A
  solubility: >250000 µg/mL
[5]; DMSO, 25 °C, organic solvent or mixture, thermodynamic from solid, DMSO, 25° C., read-out: Solubility
  solubility: ≥ 250000 µg/mL
[5]; DMSO, 50 °C, organic solvent or mixture, thermodynamic from solid, DMSO, 50° C., read-out: Solubility
  solubility: > 500000 µg/mL
[5]; MTBE, 25 °C, organic solvent or mixture, thermodynamic from solid, MTBE, 25° C., read-out: Solubility
  solubility: < 5000 µg/mL
[5]; MTBE, 50 °C, organic solvent or mixture, thermodynamic from solid, MTBE, 50° C., read-out: Solubility
  solubility: < 10000 µg/mL
[5]; THF, 25° C., listed as Form A
  solubility: >250000 µg/mL
[5]; THF, 50° C., listed as Form A
  solubility: >500000 µg/mL
[5]; ethanol, 25 °C, organic solvent or mixture, thermodynamic from solid, Ethanol, 25° C., read-out: Solubility
  solubility: < 5000 µg/mL
[5]; ethanol, 50 °C, organic solvent or mixture, thermodynamic from solid, Ethanol, 50° C., read-out: Solubility
  solubility: < 10000 µg/mL
[5]; ethyl acetate, 25 °C, organic solvent or mixture, thermodynamic from solid, Ethyl acetate, 25° C., read-out: Solubility
  solubility: < 5000 µg/mL
[5]; ethyl acetate, 50 °C, organic solvent or mixture, thermodynamic from solid, Ethyl acetate, 50° C., read-out: Solubility
  solubility: < 10000 µg/mL
[5]; heptane, 25 °C, organic solvent or mixture, thermodynamic from solid, Heptane, 25° C., read-out: Solubility
  solubility: < 5000 µg/mL
[5]; heptane, 50 °C, organic solvent or mixture, thermodynamic from solid, Heptane, 50° C., read-out: Solubility
  solubility: < 10000 µg/mL
[5]; isopropanol, 25 °C, organic solvent or mixture, thermodynamic from solid, Isopropanol, 25° C., read-out: Solubility
  solubility: < 5000 µg/mL
[5]; isopropanol, 50 °C, organic solvent or mixture, thermodynamic from solid, Isopropanol, 50° C., read-out: Solubility
  solubility: < 10000 µg/mL
[5]; isopropyl acetate, 25 °C, organic solvent or mixture, thermodynamic from solid, Isopropyl acetate, 25° C., read-out: Solubility
  solubility: < 5000 µg/mL
[5]; isopropyl acetate, 50 °C, organic solvent or mixture, thermodynamic from solid, Isopropyl acetate, 50° C., read-out: Solubility
  solubility: < 10000 µg/mL
[5]; methanol, 25 °C, organic solvent or mixture, thermodynamic from solid, Methanol, 25° C., read-out: Solubility
  solubility: ~3000 µg/mL (≈ 3.13 mM)
[5]; methanol, 50 °C, organic solvent or mixture, thermodynamic from solid, Methanol, 50° C., read-out: Solubility
  solubility: 5000 to 10000 µg/mL (≈ 5.22 to 10.4 mM)
[5]; methyl ethyl ketone, 25 °C, organic solvent or mixture, thermodynamic from solid, Methyl ethyl ketone, 25° C., read-out: Solubility
  solubility: 14000 to 17000 µg/mL (≈ 14.6 to 17.7 mM)
[5]; methyl ethyl ketone, 50 °C, organic solvent or mixture, thermodynamic from solid, Methyl ethyl ketone, 50° C., read-out: Solubility
  solubility: 25000 to 33000 µg/mL (≈ 26.1 to 34.4 mM)
[5]; toluene, 25 °C, organic solvent or mixture, thermodynamic from solid, Toluene, 25° C., read-out: Solubility
  solubility: < 5000 µg/mL
[5]; toluene, 50 °C, organic solvent or mixture, thermodynamic from solid, Toluene, 50° C., read-out: Solubility
  solubility: < 10000 µg/mL
[5]; water, 25 °C, water, thermodynamic from solid, Water, 25° C., read-out: Solubility
  solubility: < 5000 µg/mL
[5]; water, 50 °C, water, thermodynamic from solid, Water, 50° C., read-out: Solubility
  solubility: < 10000 µg/mL

## CC(C)(C)c1nc(-c2cccc(NS(=O)(=O)c3c(F)cccc3F)c2F)c(-c2ccnc(N)n2)s1 [dabrafenib]
[2]; dabrafenib 100 mg/kg PO QD plus trametinib 0.1 mg/kg PO QD
  Status by day 28: reached tumor burden endpoint
[2]; single agent, trametinib 0.1 mg/kg PO QD, dabrafenib 100 mg/kg PO QD
  Status by day 28: reached tumor burden endpoint
